Source: patent US8828401B2, “Cytotoxic peptides and antibody drug conjugates thereof” (Pfizer Inc., priority 2011, dated 2014)
Starred links: 1 amine or outer side, 2 acyl side, 3 side chain; linkers in the order of their positions; H or OH if unused. Non-standard residues stand in square brackets, D forms with d. Residues, ends and D or L forms follow the SMILES beside them. *: point of attachment. Dolaproine = CO[C@@H]([C@@H]1CCCN1)[C@@H](C)C(=O)O; X11 = O=C([C@@H](N[*:1])[C@H]1Cc2ccccc21)[*:2]; X2 = O=C([C@H](N[*:1])C1(c2ccccc2)CC1)[*:2]; Dil = CC[C@H](C)[C@H](NC)[C@@H](CC(=O)O)OC; Phe(4-NH2) = Nc1ccc(C[C@H](N)C(=O)O)cc1; X9 = Cc1cc(-c2nc3cc(F)ccc3s2)ccc1N*; Doe = c1ccc(C[C@H](N*)c2nccs2)cc1; d(αMeV) = CC(C)[C@@](C)(N)C(=O)O; d(αMeP) = C[C@]1(C(=O)O)CCCN1; X1 = CN1CCC[C@]1(C)C(=O)*; Iva = CC[C@](C)(N)C(=O)O; NMeAib = CNC(C)(C)C(=O)O; X4 = CN(C)C(C)(C)C(=O)*; X8 = C1=CC=CC(CCN*)C=C1; Ac3c = NC1(C(=O)O)CC1; Aib = CC(C)(N)C(=O)O; OtBu = CC(C)(C)O*; OAll = C=CCO*; NHPr = CCCN*

Experiments:
Assay in all cases: In vitro cell assay, MTS cell viability 96 hours after treatment
Type in all cases: cell-based
BT474 (breast cancer) = details: Homo sapiens, BT-474, BT474 cells; geometric mean; cytotoxic peptides; read-out: BT474 GMEAN IC50
Procedure: (§1) Cells were treated with 3-fold serially diluted antibody-drug conjugates or free compounds (i.e., no antibody conjugated to the drug) in duplicate at 10 concentrations. Cell viability was determined by CellTiter 96® AQueous One Solution Cell Proliferation MTS Assay (Promega, Madison Wis.) 96 hours after treatment. Relative cell viability was determined as percentage of untreated control.

N87 (gastric cancer) = details: read-out: N87 GMEAN IC50, N87 cells; geometric mean; cytotoxic peptides
Procedure: as §1

[1] = test system: MDA-MB-361-DYT2 (breast cancer); details: read-out: MDA-MB-361-DYT2 GMEAN IC50, MDA-MB-361-DYT2 cells; geometric mean; cytotoxic peptides
Procedure: as §1

CC[C@H](C)[C@@H]([C@@H](CC(=O)N1CCC[C@H]1[C@H](OC)[C@@H](C)C(=O)NCCC1C=CC=CC=C1)OC)N(C)C(=O)[C@@H](NC(=O)[C@@]1(C)CCCN1)C(C)C [#247] (H-[d(αMeP)]V[Dil][Dolaproine]-X8)
IC50 (BT474 (breast cancer)): 1.01 nM
IC50 (N87 (gastric cancer)): 2.06 nM

CC[C@H](C)[C@@H]([C@@H](CC(=O)N1CCC[C@H]1[C@H](OC)[C@@H](C)C(=O)N[C@@H](Cc1ccc(N)cc1)C(=O)OC)OC)N(C)C(=O)[C@@H](NC(=O)[C@@]1(C)CCCN1C)C(C)C [#201, 1,2-dimethyl-D-prolyl-N-[(3R,4S,5S)-1-{(2S)-2-[(1R,2R)-3-{[(2S)-3-(4-aminophenyl)-1-methoxy-1-oxopropan-2-yl]amino}-1-methoxy-2-methyl-3-oxopropyl]pyrrolidin-1-yl}-3-methoxy-5-methyl-1-oxoheptan-4-yl]-N-methyl-L-valinamide] (X1-V[Dil][Dolaproine][Phe(4-NH2)]-OMe)
IC50 (BT474 (breast cancer)): 0.144 nM
IC50 [1]: 0.121 nM

CC[C@H](C)[C@@H]([C@@H](CC(=O)N1CCC[C@H]1[C@H](OC)[C@@H](C)C(=O)N[C@@H](C(=O)OC)C1(c2ccccc2)CC1)OC)N(C)C(=O)[C@@H](NC(=O)C(C)(C)N)C(C)C [#222] (H-[Aib]V[Dil][Dolaproine][X2]-OMe)
IC50 (BT474 (breast cancer)): 0.158 nM
IC50 (N87 (gastric cancer)): 0.352 nM

CC[C@H](C)[C@@H]([C@@H](CC(=O)N1CCC[C@H]1[C@H](OC)[C@@H](C)C(=O)N[C@@H](Cc1ccccc1)C(=O)Nc1ccc(-c2nc3cc(F)ccc3s2)cc1C)OC)N(C)C(=O)[C@@H](NC(=O)C(C)(C)N)C(C)C [#235] (H-[Aib]V[Dil][Dolaproine]F-X9)
IC50 (BT474 (breast cancer)): 0.852 nM
IC50 [1]: 1.28 nM

C=CCOC(=O)[C@H](Cc1ccccc1)NC(=O)[C@H](C)[C@@H](OC)[C@@H]1CCCN1C(=O)C[C@@H](OC)[C@H]([C@@H](C)CC)N(C)C(=O)[C@@H](NC(=O)C(C)(C)NC)C(C)C [#238] (H-[NMeAib]V[Dil][Dolaproine]F-OAll)
IC50 (BT474 (breast cancer)): 0.139 nM
IC50 (N87 (gastric cancer)): 0.077 nM

CC[C@H](C)[C@@H]([C@@H](CC(=O)N1CCC[C@H]1[C@H](OC)[C@@H](C)C(=O)N[C@@H](Cc1ccccc1)C(=O)OC(C)(C)C)OC)N(C)C(=O)[C@@H](NC(=O)C(C)(C)NC)C(C)C [#130, N,2-dimethylalanyl-N-[(3R,4S,5S)-1-{(2S)-2-[(1R,2R)-3-{[(2S)-1-tert-butoxy-1-oxo-3-phenylpropan-2-yl]amino}-1-methoxy-2-methyl-3-oxopropyl]pyrrolidin-1-yl}-3-methoxy-5-methyl-1-oxoheptan-4-yl]-N-methyl-L-valinamide] (H-[NMeAib]V[Dil][Dolaproine]F-OtBu)
IC50 (BT474 (breast cancer)): 0.05 nM
IC50 [1]: 0.039 nM

CC[C@H](C)[C@@H]([C@@H](CC(=O)N1CCC[C@H]1[C@H](OC)[C@@H](C)C(=O)N[C@@H](Cc1ccccc1)C(=O)O)OC)N(C)C(=O)[C@@H](NC(=O)C(C)(C)N)C(C)C [#69, 2-methylalanyl-N-[(3R,4S,5S)-1-{(2S)-2-[(1R,2R)-3-{[(1S)-1-carboxy-2-phenylethyl]amino}-1-methoxy-2-methyl-3-oxopropyl]pyrrolidin-1-yl}-3-methoxy-5-methyl-1-oxoheptan-4-yl]-N-methyl-L-valinamide] (H-[Aib]V[Dil][Dolaproine]F-OH)
IC50 (BT474 (breast cancer)): 80.2 nM
IC50 (N87 (gastric cancer)): 66 nM

CC[C@H](C)[C@@H]([C@@H](CC(=O)N1CCC[C@H]1[C@H](OC)[C@@H](C)C(=O)N[C@@H](Cc1ccccc1)C(=O)OC)OC)N(C)C(=O)[C@@H](NC(=O)[C@@]1(C)CCCN1)C(C)C [#131, 2-methyl-D-prolyl-N-[(3R,4S,5S)-3-methoxy-1-{(2S)-2-[(1R,2R)-1-methoxy-3-{[(2S)-1-methoxy-1-oxo-3-phenylpropan-2-yl]amino}-2-methyl-3-oxopropyl]pyrrolidin-1-yl}-5-methyl-1-oxoheptan-4-yl]-N-methyl-L-valinamide] (H-[d(αMeP)]V[Dil][Dolaproine]F-OMe)
IC50 (BT474 (breast cancer)): 0.072 nM

CC[C@H](C)[C@@H]([C@@H](CC(=O)N1CCC[C@H]1[C@H](OC)[C@@H](C)C(=O)N[C@H](C(=O)OC)[C@H]1Cc2ccccc21)OC)N(C)C(=O)[C@@H](NC(=O)C(C)(C)N)C(C)C [#225] (H-[Aib]V[Dil][Dolaproine][X11]-OMe)
IC50 (BT474 (breast cancer)): 3.45 nM
IC50 (N87 (gastric cancer)): 10.5 nM

CC[C@H](C)[C@@H]([C@@H](CC(=O)N1CCC[C@H]1[C@H](OC)[C@@H](C)C(=O)N[C@@H](Cc1ccccc1)C(N)=O)OC)N(C)C(=O)[C@@H](NC(=O)C(C)(C)NC)C(C)C [#141, N,2-dimethylalanyl-N-{(1S,2R)-4-{(2S)-2-[(1R,2R)-3-{[(1S)-2-amino-1-benzyl-2-oxoethyl]amino}-1-methoxy-2-methyl-3-oxopropyl]pyrrolidin-1-yl}-2-methoxy-1-[(1S)-1-methylpropyl]-4-oxobutyl}-N-methyl-L-valinamide] (H-[NMeAib]V[Dil][Dolaproine]F-NH2)
IC50 (BT474 (breast cancer)): 3.37 nM
IC50 (N87 (gastric cancer)): 3.02 nM

CC[C@H](C)[C@@H]([C@@H](CC(=O)N1CCC[C@H]1[C@H](OC)[C@@H](C)C(=O)N[C@@H](Cc1ccccc1)C(=O)OC)OC)N(C)C(=O)[C@@H](NC(=O)[C@@]1(C)CCCCN1)C(C)C (single isomer, unassigned) [#159]
IC50 (BT474 (breast cancer)): 0.07 nM
IC50 (N87 (gastric cancer)): 0.075 nM

CC[C@H](C)[C@@H]([C@@H](CC(=O)N1CCC[C@H]1[C@H](OC)[C@@H](C)C(=O)N[C@@H](Cc1ccccc1)c1nccs1)OC)N(C)C(=O)[C@@H](NC(=O)C(C)(C)N)C(C)C [#54, 2-methylalanyl-N-[(3R,4S,5S)-3-methoxy-1-{(2S)-2-[(1R,2R)-1-methoxy-2-methyl-3-oxo-3-{[(1S)-2-phenyl-1-(1,3-thiazol-2-yl)ethyl]amino}propyl]pyrrolidin-1-yl}-5-methyl-1-oxoheptan-4-yl]-N-methyl-L-valinamide] (H-[Aib]V[Dil][Dolaproine]-Doe)
IC50 (BT474 (breast cancer)): < 0.133 nM
IC50 (N87 (gastric cancer)): < 0.221 nM

CC[C@H](C)[C@@H]([C@@H](CC(=O)N1CCC[C@H]1[C@H](OC)[C@@H](C)C(=O)N[C@@H](Cc1ccccc1)c1nccs1)OC)N(C)C(=O)[C@@H](NC(=O)[C@@]1(C)CCCCN1)C(C)C [#190, (2R)—N-[(2S)-1-{[(3R,4S,5S)-3-methoxy-1-{(2S)-2-[(1R,2R)-1-methoxy-2-methyl-3-oxo-3-{[(1S)-2-phenyl-1-(1,3-thiazol-2-yl)ethyl]amino}propyl]pyrrolidin-1-yl}-5-methyl-1-oxoheptan-4-yl](methyl)amino}-3-methyl-1-oxobutan-2-yl]-2-methylpiperidine-2-carboxamide]
IC50 (BT474 (breast cancer)): 0.134 nM
IC50 (N87 (gastric cancer)): 0.066 nM

CC[C@H](C)[C@@H]([C@@H](CC(=O)N1CCC[C@H]1[C@H](OC)[C@@H](C)C(=O)N[C@@H](Cc1ccccc1)C(=O)OC)OC)N(C)C(=O)[C@@H](NC(=O)[C@](C)(N)C(C)C)C(C)C [#146, 3-methyl-D-isovalyl-N-{(1S,2R)-4-{(2S)-2-[(1R,2R)-3-{[(1S)-1-benzyl-2-methoxy-2-oxoethyl]amino}-1-methoxy-2-methyl-3-oxopropyl]pyrrolidin-1-yl}-2-methoxy-1-[(1S)-1-methylpropyl]-4-oxobutyl}-N-methyl-L-valinamide] (H-[d(αMeV)]V[Dil][Dolaproine]F-OMe)
IC50 (BT474 (breast cancer)): 0.435 nM
IC50 (N87 (gastric cancer)): 0.195 nM

CC[C@H](C)[C@@H]([C@@H](CC(=O)N1CCC[C@H]1[C@H](OC)[C@@H](C)C(=O)N[C@@H](Cc1ccccc1)c1nccs1)OC)N(C)C(=O)[C@@H](NC(=O)C1(N)CC1)C(C)C [#51, N^2-[(1-aminocyclopropyl)carbonyl]-N-[(3R,4S,5S)-3-methoxy-1-{(2S)-2-[(1R,2R)-1-methoxy-2-methyl-3-oxo-3-{[(1S)-2-phenyl-1-(1,3-thiazol-2-yl)ethyl]amino}propyl]pyrrolidin-1-yl}-5-methyl-1-oxoheptan-4-yl]-N-methyl-L-valinamide] (H-[Ac3c]V[Dil][Dolaproine]-Doe)
IC50 (BT474 (breast cancer)): < 0.599 nM
IC50 (N87 (gastric cancer)): 3.66 nM

CC[C@H](C)[C@@H]([C@@H](CC(=O)N1CCC[C@H]1[C@H](OC)[C@@H](C)C(=O)N[C@@H](Cc1ccccc1)c1nccs1)OC)N(C)C(=O)[C@@H](NC(=O)[C@@]1(F)CCNC1)C(C)C [#192, N˜2˜-{[(3R)-3-fluoropyrrolidin-3-yl]carbonyl}-N-[(3R,4S,5S)-3-methoxy-1-{(2S)-2-[(1R,2R)-1-methoxy-2-methyl-3-oxo-3-{[(1S)-2-phenyl-1-(1,3-thiazol-2-yl)ethyl]amino}propyl]pyrrolidin-1-yl}-5-methyl-1-oxoheptan-4-yl]-N-methyl-L-valinamide]
IC50 (BT474 (breast cancer)): 0.262 nM
IC50 [1]: 0.408 nM

CC[C@H](C)[C@@H]([C@@H](CC(=O)N1CCC[C@H]1[C@H](OC)[C@@H](C)C(=O)N[C@@H](Cc1ccccc1)C(=O)OC)OC)N(C)C(=O)[C@@H](NC(=O)[C@@](C)(N)CC)C(C)C [#148, L-isovalyl-N-{(1S,2R)-4-{(2S)-2-[(1R,2R)-3-{[(1S)-1-benzyl-2-methoxy-2-oxoethyl]amino}-1-methoxy-2-methyl-3-oxopropyl]pyrrolidin-1-yl}-2-methoxy-1-[(1S)-1-methylpropyl]-4-oxobutyl}-N-methyl-L-valinamide] (H-[Iva]V[Dil][Dolaproine]F-OMe)
IC50 (BT474 (breast cancer)): 0.429 nM

CC[C@H](C)[C@@H]([C@@H](CC(=O)N1CCC[C@H]1[C@H](OC)[C@@H](C)C(=O)N[C@@H](Cc1ccccc1)C(=O)OC)OC)N(C)C(=O)[C@@H](NC(=O)C(C)(C)N(C)C)C(C)C [#228] (X4-V[Dil][Dolaproine]F-OMe)
IC50 (BT474 (breast cancer)): 0.105 nM
IC50 (N87 (gastric cancer)): 0.09 nM

CCCNC(=O)[C@H](Cc1ccccc1)NC(=O)[C@H](C)[C@@H](OC)[C@@H]1CCCN1C(=O)C[C@@H](OC)[C@H]([C@@H](C)CC)N(C)C(=O)[C@@H](NC(=O)C(C)(C)NC)C(C)C [#142, N,2-dimethylalanyl-N-{(1S,2R)-4-{(2S)-2-[(1R,2R)-3-{[(1S)-1-benzyl-2-oxo-2-(propylamino)ethyl]amino}-1-methoxy-2-methyl-3-oxopropyl]pyrrolidin-1-yl}-2-methoxy-1-[(1S)-1-methylpropyl]-4-oxobutyl}-N-methyl-L-valinamide] (H-[NMeAib]V[Dil][Dolaproine]F-NHPr)
IC50 (BT474 (breast cancer)): 0.279 nM
